Measurements published in ChEMBL document CHEMBL1140165, “Rotationally constrained 2,4-diamino-5,6-disubstituted pyrimidines: a new class of histamine H4 receptor antagonists with improved druglikeness and in vivo efficacy in pain and inflammation models” (J Med Chem, 2008).
Activity calls are given as the source filed them. The calls are words filed in the database; no cut-off is given here.

Experiments:
[1] = Protein binding in rat; assay type: ADME, organism-based; conditions: in vivo, read-out: PB (converted)
Cytochrome P450 3A4 = Cytochrome P450 3A4 (Homo sapiens, UniProt P08684); assay: Inhibition of CYP3A4 upto 10 uM; assay type: ADME
Histamine H4 receptor [2] = target: T1, Histamine H4 receptor (Homo sapiens, UniProt Q9H3N8); conditions: HEK293
[3] = Protein binding in human; assay type: ADME, organism-based; conditions: in vivo, read-out: PB (converted)
[4] = target: Histamine H4 receptor (Rattus norvegicus) (UniProt Q91ZY1); assay: Antagonist activity at rat histamine H4 receptor expressed in HEK293 cells assessed as inhibition of histamine-induced intracellular calcium elevation by FLIPR assay relative to histamine; assay type: functional, cell-based
Liver microsomes [5] = assay: Metabolic stability in human liver microsomes; assay type: ADME, Microsome
[6] = Metabolic stability in mouse liver microsomes; assay type: ADME, Microsome
Liver microsomes [7] = assay: Metabolic stability in rat liver microsomes; assay type: ADME, Microsome
Cytochrome P450 2C9 = Cytochrome P450 2C9 (Homo sapiens, UniProt P11712); assay: Inhibition of CYP2C9 upto 10 uM; assay type: ADME
Histamine H4 receptor [8] = target: T1, Histamine H4 receptor; assay: Displacement of [3H]histamine from human histamine H4 receptor expressed in HEK293 cells; assay type: cell-based
Cytochrome P450 2D6 = Cytochrome P450 2D6 (Homo sapiens, UniProt P10635); assay: Inhibition of CYP2D6 upto 10 uM; assay type: ADME
Histamine H4 receptor [9] = target: T2, Histamine H4 receptor (Rattus norvegicus, UniProt Q91ZY1); assay: Displacement of [3H]histamine from rat histamine H4 receptor expressed in HEK293 cells; assay type: cell-based
[10] = Selectivity ratio of Ki for human histamine H4 receptor to Ki for 5HT2A receptor
Histamine H4 receptor [11] = target: T2, Histamine H4 receptor; assay: (§1) Antagonist activity at rat histamine H4 receptor expressed in HEK293 cells assessed as inhibition of histamine-induced intracellular calcium elevation by FLIPR assay; assay type: functional, cell-based
Homo sapiens = organism: Homo sapiens; assay: Selectivity ratio of Ki for human histamine H4 receptor to Ki for human histamine H3 receptor
Mus musculus [12] = assay: Inhibition of clobenpropit-induced itching in ip dosed CD1/ICR mouse assessed as blockade of scratching in hind paw for 25 mins pretreated 30 mins before clobenpropit challenge; assay type: functional
[13] = Half life in rat at 10 mg/kg, iv; assay type: ADME, organism-based; parameters: dose 10 mg/kg, route intravenous; conditions: in vivo
Mus musculus [14] = assay: Antiinflammatory activity against ip dosed BALB/c mouse assessed as inhibition of zymosan-induced peritonitis after 2 hrs pretreated 30 mins before zymosan challenge; assay type: functional
Histamine H4 receptor [15] = target: T3, Histamine H4 receptor (Mus musculus, UniProt Q91ZY2); assay: Antagonist activity at mouse histamine H4 receptor expressed in HEK293 cells assessed as inhibition of histamine-induced intracellular calcium elevation by FLIPR assay; assay type: functional, cell-based
T3 sequence (Q91ZY2 whole entry): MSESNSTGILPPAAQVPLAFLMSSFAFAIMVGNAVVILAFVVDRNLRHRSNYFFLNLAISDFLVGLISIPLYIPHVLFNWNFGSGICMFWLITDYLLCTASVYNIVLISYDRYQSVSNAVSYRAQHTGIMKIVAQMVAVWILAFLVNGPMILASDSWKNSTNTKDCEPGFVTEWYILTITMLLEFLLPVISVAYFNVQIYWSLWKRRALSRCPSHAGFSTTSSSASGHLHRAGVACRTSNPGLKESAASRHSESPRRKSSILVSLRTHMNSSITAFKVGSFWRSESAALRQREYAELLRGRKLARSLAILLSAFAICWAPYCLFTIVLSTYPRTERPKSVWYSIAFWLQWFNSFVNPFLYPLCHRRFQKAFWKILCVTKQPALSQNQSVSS

[16] = Fractional bioavailability in rat at 10 mg/kg, iv and 10 mg/kg, po; assay type: ADME, organism-based; conditions: in vivo
[17] = Selectivity ratio of Ki for human histamine H4 receptor to Ki for histamine H1 receptor
[18] = Selectivity ratio of Ki for human histamine H4 receptor to Ki for dopamine D2 receptor
BMMC = assay: Blockade of histamine-induced morphological changes in BALB/c mouse BMMC by flow cytometry; assay type: functional, cell-based
[19] = Selectivity ratio of Ki for human histamine H4 receptor to Ki for adrenergic alpha1 receptor
[20] = Selectivity ratio of Ki for human histamine H4 receptor to Ki for histamine H2 receptor
[21] = Terminal volume of distribution in rat at 10 mg/kg, iv; assay type: ADME, organism-based; parameters: dose 10 mg/kg, route intravenous; conditions: in vivo, read-out: Vbeta
[22] = Blood clearance in rat at 10 mg/kg, iv; assay type: ADME, organism-based; parameters: dose 10 mg/kg, route intravenous; conditions: whole blood
[23] = Selectivity ratio of Ki for human histamine H4 receptor to Ki for 5HT1D receptor
[24] = Selectivity ratio of Ki for human histamine H4 receptor to Ki for 5HT1A receptor
[25] = target: Histamine H4 receptor (Rattus norvegicus) (UniProt Q91ZY1); assay: as §1; assay type: functional, cell-based
[26] = Half life in mouse at 2.5 mg/kg, iv; assay type: ADME, organism-based; parameters: dose 2.5 mg/kg, route intravenous; conditions: in vivo
Rattus norvegicus = assay: Antinociceptive efficacy in ip dosed spinal nerve ligated Sprague-Dawley rat assessed as reduction of neuropathic pain in paw; assay type: functional
[27] = Ratio of drug level in brain to plasma in rat at 10 mg/kg, iv after 30 mins; assay type: ADME, organism-based; parameters: dose 10 mg/kg, route intravenous
[28] = target: Histamine H4 receptor (Mus musculus) (UniProt Q91ZY2); assay: Antagonist activity at mouse histamine H4 receptor expressed in HEK293 cells assessed as inhibition of histamine-induced intracellular calcium elevation by FLIPR assay relative to histamine; assay type: functional, cell-based

Cytochrome P450 2C9, sequence (P11712 whole entry): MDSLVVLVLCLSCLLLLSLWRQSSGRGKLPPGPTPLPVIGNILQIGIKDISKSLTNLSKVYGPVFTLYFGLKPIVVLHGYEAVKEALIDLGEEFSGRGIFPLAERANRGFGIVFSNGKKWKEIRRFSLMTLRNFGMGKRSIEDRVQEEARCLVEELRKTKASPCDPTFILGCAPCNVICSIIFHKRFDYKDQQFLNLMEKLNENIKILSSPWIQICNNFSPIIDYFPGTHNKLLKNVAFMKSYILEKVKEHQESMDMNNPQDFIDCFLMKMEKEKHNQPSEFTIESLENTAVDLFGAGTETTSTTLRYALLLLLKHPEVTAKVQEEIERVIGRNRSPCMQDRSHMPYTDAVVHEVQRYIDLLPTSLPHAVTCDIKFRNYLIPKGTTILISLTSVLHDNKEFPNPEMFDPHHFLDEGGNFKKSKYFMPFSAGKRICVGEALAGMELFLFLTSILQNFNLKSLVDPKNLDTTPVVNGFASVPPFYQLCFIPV
T1 sequence (Q9H3N8 whole entry): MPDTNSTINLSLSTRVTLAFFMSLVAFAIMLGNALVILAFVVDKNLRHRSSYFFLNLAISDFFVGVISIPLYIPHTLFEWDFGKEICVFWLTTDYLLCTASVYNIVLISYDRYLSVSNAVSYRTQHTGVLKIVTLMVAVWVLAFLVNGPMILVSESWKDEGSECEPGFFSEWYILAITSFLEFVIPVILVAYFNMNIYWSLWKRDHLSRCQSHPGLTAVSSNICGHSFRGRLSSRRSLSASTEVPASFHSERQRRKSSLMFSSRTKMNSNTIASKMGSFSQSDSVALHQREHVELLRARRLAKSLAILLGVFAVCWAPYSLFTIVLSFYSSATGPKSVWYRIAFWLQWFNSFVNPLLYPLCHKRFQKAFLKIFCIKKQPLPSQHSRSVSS
Cytochrome P450 3A4, sequence (P08684 whole entry): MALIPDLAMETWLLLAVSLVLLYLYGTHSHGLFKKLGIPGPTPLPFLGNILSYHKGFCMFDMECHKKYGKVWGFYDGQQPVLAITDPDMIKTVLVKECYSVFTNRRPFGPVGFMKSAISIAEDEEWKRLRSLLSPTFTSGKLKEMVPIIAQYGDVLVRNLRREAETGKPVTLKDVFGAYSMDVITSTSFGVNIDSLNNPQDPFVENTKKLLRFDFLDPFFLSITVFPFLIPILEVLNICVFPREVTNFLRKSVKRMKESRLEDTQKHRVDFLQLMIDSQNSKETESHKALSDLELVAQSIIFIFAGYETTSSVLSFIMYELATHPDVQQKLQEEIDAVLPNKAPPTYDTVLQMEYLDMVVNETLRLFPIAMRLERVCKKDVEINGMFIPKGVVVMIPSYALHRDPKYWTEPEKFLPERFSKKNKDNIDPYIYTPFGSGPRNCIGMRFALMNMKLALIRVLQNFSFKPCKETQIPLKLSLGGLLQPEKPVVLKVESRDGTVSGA
Cytochrome P450 2D6, sequence (P10635 whole entry): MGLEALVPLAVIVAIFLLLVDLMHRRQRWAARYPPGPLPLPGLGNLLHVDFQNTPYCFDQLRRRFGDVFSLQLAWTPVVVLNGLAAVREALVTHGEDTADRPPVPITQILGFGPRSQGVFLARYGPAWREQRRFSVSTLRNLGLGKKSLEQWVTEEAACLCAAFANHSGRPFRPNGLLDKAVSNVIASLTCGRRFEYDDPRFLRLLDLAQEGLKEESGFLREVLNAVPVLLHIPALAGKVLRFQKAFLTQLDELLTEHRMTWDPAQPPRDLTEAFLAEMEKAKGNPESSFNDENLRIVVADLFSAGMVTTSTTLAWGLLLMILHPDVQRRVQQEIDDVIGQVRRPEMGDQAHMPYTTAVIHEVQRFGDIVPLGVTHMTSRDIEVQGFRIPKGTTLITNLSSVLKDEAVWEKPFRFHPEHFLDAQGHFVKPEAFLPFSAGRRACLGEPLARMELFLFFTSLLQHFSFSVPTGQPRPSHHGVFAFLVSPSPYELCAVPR
Histamine H4 receptor (Rattus norvegicus), sequence (Q91ZY1 whole entry): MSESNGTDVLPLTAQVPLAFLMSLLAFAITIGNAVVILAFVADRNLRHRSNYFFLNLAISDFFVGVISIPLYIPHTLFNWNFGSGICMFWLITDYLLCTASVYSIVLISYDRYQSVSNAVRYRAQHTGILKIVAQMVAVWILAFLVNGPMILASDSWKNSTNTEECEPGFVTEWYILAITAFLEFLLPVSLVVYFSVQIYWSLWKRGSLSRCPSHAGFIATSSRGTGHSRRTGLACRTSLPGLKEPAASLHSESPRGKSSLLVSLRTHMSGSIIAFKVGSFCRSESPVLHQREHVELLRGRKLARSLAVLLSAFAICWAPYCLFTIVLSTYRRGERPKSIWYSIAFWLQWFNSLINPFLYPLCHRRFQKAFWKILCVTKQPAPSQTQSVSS
T2 sequence (Q91ZY1 whole entry): as above

## CN1CCN(c2cc(-c3ccccc3)nc(N)n2)CC1
[1]
  fraction unbound: 0.35
Cytochrome P450 3A4
  Activity: Not Active
Histamine H4 receptor [2]
  pKb: 8.39
[3]
  fraction unbound: 0.51
[4]
  Efficacy: 79%
Liver microsomes [5]
  Stability: 22 pmol/min/mg
[6]
  Stability: 119 pmol/min/mg
Liver microsomes [7]
  Stability: 168 pmol/min/mg
Cytochrome P450 2C9
  Activity: Not Active
Histamine H4 receptor [8]; read-out: pKi (converted)
  Ki: 5.01 nM
Cytochrome P450 2D6
  Activity: Not Active
Histamine H4 receptor [9]
  Ki: 14.1 nM

## Nc1nc2c(c(N3CCNCC3)n1)CCCCC2c1ccccc1 (stereo not drawn)
[1]
  fraction unbound: 0.24
Cytochrome P450 3A4
  Activity: Not Active
[10]
  Ratio Ki: 2.2
Histamine H4 receptor [2]
  pKb: 7.24
Histamine H4 receptor [11]
  EC50: 55 nM
Homo sapiens
  Ratio Ki: 56
Mus musculus [12]
  ED50: 10 µmol/kg
[13]
  half-life: 192 min
[3]
  fraction unbound: 0.41
Mus musculus [14]
  ED50: 79 µmol/kg
Liver microsomes [5]
  Stability: 28.5 pmol/min/mg
Histamine H4 receptor [15]
  EC50: 45.7 nM
[6]
  Stability: 10.9 pmol/min/mg
[16]
  bioavailability: 31%
[17]
  Ratio Ki: > 160
[18]
  Ratio Ki: 480
BMMC
  Activity: Active
Liver microsomes [7]
  Stability: 108 pmol/min/mg
[19]
  Ratio Ki: 125
[20]
  Ratio Ki: > 230
Cytochrome P450 2C9
  Activity: Not Active
Histamine H4 receptor [8]; read-out: Ki
  Ki: 39.8 nM
Cytochrome P450 2D6
  Activity: Not Active
Histamine H4 receptor [9]
  Ki: 4.47 nM
[21]
  Vd: 22 L/kg
[22]
  clearance: 80 mL/min/kg
[23]
  Ratio Ki: 81
[24]
  Ratio Ki: 11

## Nc1nc2c(c(N3CCNCC3)n1)CCc1ccccc1-2
[1]
  fraction unbound: 0.73
Cytochrome P450 3A4
  Activity: Not Active
Histamine H4 receptor [2]
  pKb: 7.58
Histamine H4 receptor [11]
  EC50: 24 nM
[3]
  fraction unbound: 0.59
[4]
  Efficacy: 52%
Liver microsomes [5]
  Stability: 45.9 pmol/min/mg
[6]
  Stability: 18.4 pmol/min/mg
Liver microsomes [7]
  Stability: 104 pmol/min/mg
Cytochrome P450 2C9
  Activity: Not Active
Histamine H4 receptor [8]; read-out: pKi (converted)
  Ki: 52.5 nM
Cytochrome P450 2D6
  Activity: Not Active
Histamine H4 receptor [9]
  Ki: 9.12 nM

## CN[C@@H]1CCN(c2nc(N)nc3c2CCCCc2ccccc2-3)C1
Histamine H4 receptor [2]
  pKb: 8.15
[25]
  pKb: 7.5
BMMC
  Activity: inactive

## CN1CCN(c2cc(-c3ccc(C#N)cc3)nc(N)n2)CC1
[1]
  fraction unbound: 0.62
Cytochrome P450 3A4
  Activity: Not Active
[10]
  Ratio Ki: 120
Homo sapiens
  Ratio Ki: 30
Mus musculus [12]
  ED50: 25 µmol/kg
[13]
  half-life: 24 min
[3]
  fraction unbound: 0.65
Mus musculus [14]
  ED50: 66 µmol/kg
[4]
  Efficacy: 64%
Liver microsomes [5]
  Stability: 25.9 pmol/min/mg
[6]
  Stability: 43.1 pmol/min/mg
[16]
  bioavailability: 31%
[17]
  Ratio Ki: > 170
[18]
  Ratio Ki: > 140
BMMC
  Activity: Active
[26]
  half-life: 12 min
Liver microsomes [7]
  Stability: 94.5 pmol/min/mg
[19]
  Ratio Ki: 330
[20]
  Ratio Ki: > 260
Cytochrome P450 2C9
  Activity: Not Active
Rattus norvegicus
  ED50: 115 µmol/kg
Cytochrome P450 2D6
  Activity: Not Active
[27]
  Kp at 0.5 h: 20
[21]
  Vd: 7.1 L/kg
[22]
  clearance: 172 mL/min/kg
[23]
  Ratio Ki: 3.5
[24]
  Ratio Ki: 1.2

## N#Cc1ccc(-c2cc(N3CCNCC3)nc(N)n2)cc1
[1]
  fraction unbound: 0.96
Cytochrome P450 3A4
  Activity: Not Active
Histamine H4 receptor [2]
  pKb: 8.08
[28]
  Efficacy: 54%
[3]
  fraction unbound: 0.93
Liver microsomes [5]
  Stability: 6.2 pmol/min/mg
[6]
  Stability: 23.2 pmol/min/mg
Liver microsomes [7]
  Stability: 26.9 pmol/min/mg
Cytochrome P450 2C9
  Activity: Not Active
Cytochrome P450 2D6
  Activity: Not Active
